Measured values as given in patent US11351164B2, “Inhibitors of indoleamine 2,3-dioxygenase and methods of their use” (BRISTOL-MYERS SQUIBB COMPANY, priority 2016, dated 2022).

Target: T1, human IDO1 (Homo sapiens, UniProt P14902)
T1 construct: expressed in transfected cells
Assay: IDO inhibition assay in HEK293 cells stably expressing human IDO1 (kynurenine, Ehrlich reagent, absorbance 490 nm)
Format: cell-based
Details: 20 hours incubation, read-out: IDO1 HEK Human IC50
Protocol: HEK293 cells were transfected with a pCDNA-based mammalian expression vector harboring human IDO1 cDNA (NM 002164.2) by electroporation. They were cultured in medium (DMEM with 10% FBS) containing 1 mg/ml G418 for two weeks. Clones of HEK293 cells that stably expressed human IDO1 protein were selected and expanded for IDO inhibition assay. The human IDO1/HEK293 cells were seeded at 10,000 cells per 50 μL per well with RPMI/phenol red free media contains 10% FBS in a 384-well black wall clear bottom tissue culture plate (Matrix Technologies LLC) 100 nL of certain concentration of compound was then added to each well using ECHO liquid handling systems. The cells were incubated for 20 hours in 37° C. incubator with 5% CO2. The compound treatments were stopped by adding trichloroacetic acid (Sigma-Aldrich) to a final concentration at 0.2%. The cell plate was further incubated at 50° C. for 30 minute. The equal volume supernatant ([…]) and 0.2% (w/v) Ehrlich reagent (4-dimethylaminobenzaldehyde, Sigma-Aldrich) in glacial acetic acid were mixed in a new clear bottom 384-well plate. This plate was then incubated at room temperature for 30 minute. The absorbance at 490 nm was measured on Envision plate reader. Compound IC50 values were calculated using the counts of 500 nM of a reference standard treatment as one hundred percent inhibition, and counts of no compound but DMSO treatment as zero percent inhibition.

T1 sequence (P14902 whole entry): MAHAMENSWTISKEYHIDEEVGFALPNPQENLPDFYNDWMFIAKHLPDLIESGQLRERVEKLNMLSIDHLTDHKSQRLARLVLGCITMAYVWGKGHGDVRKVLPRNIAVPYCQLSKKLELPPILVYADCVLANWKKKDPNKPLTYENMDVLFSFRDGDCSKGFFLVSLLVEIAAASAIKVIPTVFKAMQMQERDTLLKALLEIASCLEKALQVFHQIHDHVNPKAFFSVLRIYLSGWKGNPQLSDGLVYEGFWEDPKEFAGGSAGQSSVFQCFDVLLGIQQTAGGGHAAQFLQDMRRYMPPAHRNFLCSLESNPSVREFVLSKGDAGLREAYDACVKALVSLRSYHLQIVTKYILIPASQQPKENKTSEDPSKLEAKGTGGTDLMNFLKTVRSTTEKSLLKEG

SMILES | IC50
CCC(Nc1nnc(-c2ccc(OC)cc2)o1)[C@H]1CC[C@@H](c2ccnc3ccc(F)cc32)CC1 (single isomer, unassigned) [Example 49-2, N-(1-((1s,4s)-4-(6-Fluoroquinolin-4-yl)cyclohexyl)propyl)-5-(4-methoxyphenyl)-1,3,4-oxadiazol-2-amine] | 177 nM
CCOCC(Nc1nnc(-c2ccc(OC)cc2)o1)[C@H]1CC[C@@H](c2ccnc(F)c2C)CC1 (single isomer, unassigned) [Example 57-2, N-(2-Ethoxy-1-((1s,4s)-4-(2-fluoro-3-methylpyridin-4-yl)cyclohexyl)ethyl)-5-(4-methoxyphenyl)-1,3,4-oxadiazol-2-amine] | 330 nM
C[C@@H](c1ncc(-c2ccc(C#N)cc2)o1)[C@H]1CC[C@@H](c2ccnc3ccc(F)cc32)CC1 [Example 46, 4-(2-((R)-1-((1s,4S)-4-(6-Fluoroquinolin-4-yl)cyclohexyl)ethyl)oxazol-5-yl)benzonitrile] | 386 nM
CCC(Nc1nnc(-c2ccc(OC)cc2)o1)C1CCC(c2ccnc3ccc(F)cc23)CC1 (stereo not drawn) [Example 50, N-(1-((1r,4r)-4-(6-Fluoroquinolin-4-yl)cyclohexyl)propyl)-5-(4-methoxyphenyl)-1,3,4-oxadiazol-2-amine] | 122 nM
C[C@@H](c1nnc(-c2ccc(F)c(Cl)c2)o1)[C@H]1CC[C@@H](c2ccnc3ccc(F)cc32)CC1 [Example 17, 2-(3-chloro-4-fluorophenyl)-((R)-1-((1s,4S)-4-(6-fluoroquinolin-4-yl)cyclohexyl)ethyl)-1,3,4-oxadiazole] | 239 nM
Cc1ccc(-c2nnc([C@H](C)[C@H]3CC[C@@H](c4ccnc5ccc(F)cc54)CC3)[nH]2)cc1 [Example 15, 6-fluoro-4-((1S,4s)-4-((R)-1-(5-p-tolyl-4H-1,2,4-triazol-3-yl)ethyl)cyclohexyl)quinoline] | 124 nM
C[C@@H](Nc1nnc(-c2ccc(F)cc2)o1)[C@H]1CC[C@@H](c2ccnc3ccc(F)cc32)CC1 [Example 31, 5-(4-fluorophenyl)-N-((R)-1-((1s,4S)-4-(6-fluoroquinolin-4-yl)cyclohexyl)ethyl)-1,3,4-oxadiazol-2-amine] | 42.7 nM
C[C@@H](c1ncc(-c2ccc(Cl)cc2)o1)[C@H]1CC[C@@H](c2ccnc3ccc(F)cc32)CC1 [Example 43, 5-(4-Chlorophenyl)-2-((R)-1-((1s,4S)-4-(6-fluoroquinolin-4-yl)cyclohexyl)ethyl)oxazole] | 288 nM
COCc1nnc(N[C@H](C)[C@H]2CC[C@@H](c3ccnc4ccc(F)cc43)CC2)o1 [Example 34, N-((R)-1-((1s,4S)-4-(6-fluoroquinolin-4-yl)cyclohexyl)ethyl)-5-(methoxymethyl)-1,3,4-oxadiazol-2-amine] | 38.6 nM
Cc1ccc(-c2nnc([C@H](C)[C@H]3CC[C@@H](c4ccnc5ccc(F)cc54)CC3)o2)cc1F [Example 16, 2-(3-fluoro-4-methylphenyl)-5-((R)-1-((1s,4S)-4-(6-fluoroquinolin-4-yl)cyclohexyl)ethyl)-1,3,4-oxadiazole] | 2000 nM
CCC(c1nnc(-c2ccc(OC(C)C)cc2)o1)C1CCC(c2ccnc3ccc(F)cc23)CC1 (stereo not drawn) [Example 54, 2-(1-(4-(6-Fluoroquinolin-4-yl)cyclohexyl)propyl)-5-(4-isopropoxyphenyl)-1,3,4-oxadiazole] | 68.8 nM
CCC(c1nnc(-c2ccc(OC(C)C)cc2)[nH]1)C1CCC(c2ccnc3ccc(F)cc23)CC1 (stereo not drawn) [Example 51, 6-Fluoro-4-(4-(1-(5-(4-isopropoxyphenyl)-4H-1,2,4-triazol-3-yl)propyl)cyclohexyl)quinoline] | 71.1 nM
CCC(c1nnc(Nc2ccc(OC)cc2)[nH]1)C1CCC(c2ccnc3ccc(F)cc23)CC1 (single isomer, unassigned) [Example 55, 5-(1-(4-(6-Fluoroquinolin-4-yl)cyclohexyl)propyl)-N-(4-methoxyphenyl)-4H-1,2,4-triazol-3-amine] | 2000 nM
CCC(Nc1nnc(-c2ccc(F)cc2)o1)C1CCC(c2ccnc3ccc(C(F)(F)F)cc23)CC1 (single isomer, unassigned) [Example 61, 5-(4-fluorophenyl)-N-(1-((1s,4s)-4-(6-(trifluoromethyl)quinolin-4-yl)cyclohexyl)propyl)-1,3,4-oxadiazol-2-amine] | 811 nM
C[C@@H](Nc1nnc(-c2ccc(Cl)cc2)[nH]1)[C@H]1CC[C@@H](c2ccnc3ccc(F)cc32)CC1 [Example 40, 5-(4-Chlorophenyl)-N—((R)-1-((1s,4S)-4-(6-fluoroquinolin-4-yl)cyclohexyl)ethyl)-4H-1,2,4-triazol-3-amine] | 126 nM
C[C@@H](c1nnc(-c2ccc(Cl)cc2)o1)[C@H]1CC[C@@H](c2ccnc3ccc(F)cc32)CC1 [Example 4, 2-(4-Chlorophenyl)-5-((R)-1-((1s,4s)-4-(6-fluoroquinolin-4-yl)cyclohexyl)ethyl)-1,3,4-oxadiazole] | 167 nM
COc1ccc(Nc2nnc([C@H](C)[C@H]3CC[C@@H](c4ccnc5ccc(F)cc54)CC3)[nH]2)cc1 [Example 20, 5-((R)-1-((1s,4s)-4-(6-Fluoroquinolin-4-yl)cyclohexyl)ethyl)-N-(4-methoxyphenyl)-4H-1,2,4-triazol-3-amine] | 135 nM
Cc1ccc(-c2nnc([C@H](C)[C@H]3CC[C@@H](c4ccnc5ccc(F)cc54)CC3)[nH]2)cc1F [Example 10, 6-fluoro-4-((1S,4s)-4-((R)-1-(5-(3-fluoro-4-methylphenyl)-4H-1,2,4-triazol-3-yl)ethyl)cyclohexyl)quinoline] | 747 nM
Cc1csc(-c2nnc(N[C@H](C)[C@H]3CC[C@@H](c4ccnc5ccc(F)cc54)CC3)o2)n1 [Example 32, N-((R)-1-((1s,4S)-4-(6-fluoroquinolin-4-yl)cyclohexyl)ethyl)-5-(4-methylthiazol-2-yl)-1,3,4-oxadiazol-2-amine] | 3.5 nM
C[C@@H](c1nnc(-c2ccc(C#N)cc2)s1)[C@H]1CC[C@@H](c2ccnc3ccc(F)cc32)CC1 [Example 6, 4-(5-((R)-1-((1s,4S)-4-(6-Fluoroquinolin-4-yl)cyclohexyl)ethyl)-1,3,4-thiadiazol-2-yl)benzonitrile] | 37 nM
CCC(Nc1nnc(-c2ccc(OC)cc2)o1)[C@H]1CC[C@@H](c2ccnc(F)c2C)CC1 (single isomer, unassigned) [Example 63-2, N-(1-((1s,4s)-4-(2-Fluoro-3-methylpyridin-4-yl)cyclohexyl)propyl)-5-(4-methoxyphenyl)-1,3,4-oxadiazol-2-amine] | 141 nM
CCC(c1nnc(-c2ccc(OC(C)C)cc2)[nH]1)C1CCC(c2ccnc3ccc(F)cc23)CC1 (stereo not drawn) [Example 53, 6-Fluoro-4-(4-(1-(5-(4-isopropoxyphenyl)-4H-1,2,4-triazol-3-yl)propyl)cyclohexyl)quinoline] | 144 nM
C[C@@H](Nc1nnc(C2CCCCC2)o1)[C@H]1CC[C@@H](c2ccnc3ccc(F)cc32)CC1 [Example 27, 5-Cyclohexyl-N—((R)-1-((1s,4S)-4-(6-fluoroquinolin-4-yl)cyclohexyl)ethyl)-1,3,4-oxadiazol-2-amine] | 9 nM
C[C@@H](Nc1nnc(-c2ccc(-c3nccs3)cc2)o1)[C@H]1CC[C@@H](c2ccnc3ccc(F)cc32)CC1 [Example 35, N-((R)-1-((1s,4S)-4-(6-fluoroquinolin-4-yl)cyclohexyl)ethyl)-5-(4-(thiazol-2-yl)phenyl)-1,3,4-oxadiazol-2-amine] | 1000 nM
C[C@@H](c1ncc(-c2ccc(F)cc2)o1)[C@H]1CC[C@@H](c2ccnc3ccc(F)cc32)CC1 [Example 45, 5-(4-Fluorophenyl)-2-((R)-1-((1s,4S)-4-(6-fluoroquinolin-4-yl)cyclohexyl)ethyl)oxazole] | 182 nM
C[C@@H](Nc1nnc(-c2ccc(Cl)cc2)o1)[C@H]1CC[C@@H](c2ccnc3ccc(F)cc32)CC1 [Example 23, 5-(4-Chlorophenyl)-N—((R)-1-((1s,4S)-4-(6-fluoroquinolin-4-yl)cyclohexyl)ethyl)-1,3,4-oxadiazol-2-amine] | 45.3 nM
COc1ccc(-c2nnc(N[C@H](C)[C@H]3CC[C@@H](c4ccnc5ccc(F)cc54)CC3)s2)cc1 [Example 26, N—((R)-1-((1s,4S)-4-(6-Fluoroquinolin-4-yl)cyclohexyl)ethyl)-5-(4-methoxyphenyl)-1,3,4-thiadiazol-2-amine] | 61.9 nM
C[C@@H](Nc1nc(-c2ccc(Cl)cc2)cs1)[C@H]1CC[C@@H](c2ccnc3ccc(F)cc32)CC1 [Example 37, 4-(4-Chlorophenyl)-N—((R)-1-((1s,4S)-4-(6-fluoroquinolin-4-yl)cyclohexyl)ethyl)thiazol-2-amine] | 858 nM
COc1ccc(-c2nnc(N[C@H](C)[C@H]3CC[C@@H](c4ccnc5ccc(F)cc54)CC3)[nH]2)cc1 [Example 42, N—((R)-1-((1s,4S)-4-(6-Fluoroquinolin-4-yl)cyclohexyl)ethyl)-5-(4-methoxyphenyl)-4H-1,2,4-triazol-3-amine] | 57.2 nM
CCC(c1nnc(Nc2ccc(OC)cc2)[nH]1)C1CCC(c2ccnc3ccc(F)cc23)CC1 (single isomer, unassigned) [Example 56, 5-(1-(4-(6-Fluoroquinolin-4-yl)cyclohexyl)propyl)-N-(4-methoxyphenyl)-4H-1,2,4-triazol-3-amine] | 18.4 nM
